Measured values taken from patent US10266497B2 (ABIDE THERAPEUTICS, INC., priority 2017, dated 2019).

Legend:
[1] = target: T1, MAGL (Homo sapiens, UniProt Q99685); experiment: In vitro competitive activity-based protein profiling, MAGL, human; details: for inhibition at 1 µM: read-out: MAGL % inh. 1 μM (human)
T1 sequence (Q99685 1-303): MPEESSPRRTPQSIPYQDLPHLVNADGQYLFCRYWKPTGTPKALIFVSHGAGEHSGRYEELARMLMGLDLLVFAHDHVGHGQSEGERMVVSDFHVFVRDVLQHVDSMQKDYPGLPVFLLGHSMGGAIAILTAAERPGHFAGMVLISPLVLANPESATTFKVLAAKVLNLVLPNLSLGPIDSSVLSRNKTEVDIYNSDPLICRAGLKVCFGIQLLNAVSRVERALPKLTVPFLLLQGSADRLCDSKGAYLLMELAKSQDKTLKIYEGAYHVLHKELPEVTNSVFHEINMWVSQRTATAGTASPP

[2] = target: T2, MAGL (Mus musculus, UniProt O35678); experiment: In vitro competitive activity-based protein profiling, MAGL, mouse; details: read-out: MAGL % inh. 1 μM (mouse)
T2 sequence (O35678 1-303): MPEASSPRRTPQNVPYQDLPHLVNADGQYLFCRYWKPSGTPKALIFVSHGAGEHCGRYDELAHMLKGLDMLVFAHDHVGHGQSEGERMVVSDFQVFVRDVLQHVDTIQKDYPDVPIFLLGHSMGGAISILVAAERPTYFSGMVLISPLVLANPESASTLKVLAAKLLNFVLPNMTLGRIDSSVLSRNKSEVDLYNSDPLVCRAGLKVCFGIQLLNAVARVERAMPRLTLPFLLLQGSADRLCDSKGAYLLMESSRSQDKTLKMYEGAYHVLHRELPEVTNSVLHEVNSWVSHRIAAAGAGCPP

[3] = target: T3, FAAH (Homo sapiens, UniProt O00519); experiment: In vitro competitive activity-based protein profiling, FAAH, human; details: for inhibition at 1 µM: read-out: FAAH % inh. 1 μM (human)
T3 sequence (O00519 1-579): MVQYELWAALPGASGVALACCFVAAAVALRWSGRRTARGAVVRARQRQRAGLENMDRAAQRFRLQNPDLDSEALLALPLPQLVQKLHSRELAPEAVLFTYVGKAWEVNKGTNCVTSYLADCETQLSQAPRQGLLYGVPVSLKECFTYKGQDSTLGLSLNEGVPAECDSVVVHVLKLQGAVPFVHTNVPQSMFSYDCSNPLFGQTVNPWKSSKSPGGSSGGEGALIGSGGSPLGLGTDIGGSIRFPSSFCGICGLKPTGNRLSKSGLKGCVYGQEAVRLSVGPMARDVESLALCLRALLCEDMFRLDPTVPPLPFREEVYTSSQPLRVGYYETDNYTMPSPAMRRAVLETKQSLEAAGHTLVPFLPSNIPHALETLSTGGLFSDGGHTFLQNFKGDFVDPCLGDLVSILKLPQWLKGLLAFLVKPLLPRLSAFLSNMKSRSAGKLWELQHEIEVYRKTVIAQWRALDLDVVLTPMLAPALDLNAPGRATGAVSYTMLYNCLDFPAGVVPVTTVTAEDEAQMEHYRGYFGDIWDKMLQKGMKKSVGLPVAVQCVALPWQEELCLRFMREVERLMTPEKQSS

[4] = target: T4, FAAH (Mus musculus, UniProt O08914); experiment: In vitro competitive activity-based protein profiling, FAAH, mouse; details: read-out: FAAH % inh. 1 μM (mouse)
T4 sequence (O08914 1-579): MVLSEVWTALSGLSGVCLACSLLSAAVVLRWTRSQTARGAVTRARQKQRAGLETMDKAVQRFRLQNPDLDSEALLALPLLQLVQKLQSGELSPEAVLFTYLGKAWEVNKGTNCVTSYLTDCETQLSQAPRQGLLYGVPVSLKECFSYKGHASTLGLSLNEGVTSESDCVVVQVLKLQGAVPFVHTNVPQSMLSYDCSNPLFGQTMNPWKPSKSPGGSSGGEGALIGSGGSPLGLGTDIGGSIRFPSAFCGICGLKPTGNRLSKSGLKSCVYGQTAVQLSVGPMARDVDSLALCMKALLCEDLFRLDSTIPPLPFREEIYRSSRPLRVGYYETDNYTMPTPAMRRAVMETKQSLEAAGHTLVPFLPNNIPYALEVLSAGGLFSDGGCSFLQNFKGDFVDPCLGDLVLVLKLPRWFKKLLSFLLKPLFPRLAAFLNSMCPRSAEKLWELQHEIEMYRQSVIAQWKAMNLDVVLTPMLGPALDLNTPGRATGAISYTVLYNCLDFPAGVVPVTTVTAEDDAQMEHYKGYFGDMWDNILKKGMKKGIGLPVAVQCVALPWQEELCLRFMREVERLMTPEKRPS
Protocol: Biological Evaluation In Vitro Competitive Activity-Based Protein Profiling.
Proteomes (mouse brain membrane fraction for mouse assays; human prefrontal cortex membrane fractions for human assays) (50 mL, 1.0 mg/mL total protein concentration) were preincubated with varying concentrations of inhibitors at 37° C. After 30 min, FP-Rh (1.0 mL, 50 mM in DMSO) was added and the mixture was incubated for another 30 min at 37° C. Reactions were quenched with SDS loading buffer (15 μL—4λ) and run on SDS-PAGE.

Row | SMILES | inhibition at 1 µM [1] | inhibition at 1 µM [2] | inhibition at 1 µM [3] | inhibition at 1 µM [4] | IC50 [3] | inhibition at 10 µM ([1]; read-out: MAGL % inh. (human) at 10 uM) | inhibition at 50 µM ([3]; read-out: FAAH % inh. (human) at 50 uM)
1 | O=C(O)c1ccn(C(=O)N2CCC3(CCN(Cc4cc(F)cc(C(F)(F)F)c4)C3)CC2)n1 [Example 152, 1-(2-(3-fluoro-5-(trifluoromethyl)benzyl)-2,8-diazaspiro[4.5]decane-8-carbonyl)-1H-pyrazole-3-carboxylic acid] | > 75% | > 75% | 0 to 25% | 50 to 75% |  |  | 
2 | O=C(O)c1ccn(C(=O)N2CCN(Cc3ccc(C(F)(F)F)cc3-c3nnn[nH]3)CC2)n1 [Example 5, 1-(4-(2-(1H-Tetrazol-5-yl)-4-(trifluoromethyl)benzyl)piperazine-1-carbonyl)-1H-pyrazole-3-carboxylic Acid] | > 75% | 50 to 75% | 0 to 25% | 0 to 25% |  |  | 
3 | O=C(O)c1ccn(C(=O)N2CCN(Cc3ccc(Cl)cc3N3CCN(C4CC4)CC3)CC2)n1 [Example 97, 1-(4-(4-chloro-2-(4-cyclopropylpiper-azin-1-yl)benzyl)piperazine-1-carbonyl)-1H-pyrazole-3-carboxylic acid] | > 75% | > 75% | 0 to 25% | 0 to 25% |  |  | 
4 | O=C(O)c1nn(C(=O)N2CCC3(CCN(Cc4ccc(N5CCCC5)cc4C(F)(F)F)C3)CC2)cc1Cl [Example 138, 4-chloro-1-(2-(4-(pyrrolidin-1-yl)-2-(trifluoromethyl)benzyl)-2,8-diazaspiro[4.5]decane-8-carbonyl)-1H-pyrazole-3-carboxylic acid] | > 75% | > 75% | 0 to 25% | 50 to 75% | 100 to 1000 nM |  | 
5 | O=C(O)c1ccn(C(=O)N2CCN(Cc3cccc(Oc4cccc(Cl)c4)c3)CC2)n1 [Example 84, 1-(4-(3-(3-chlorophenoxy)benzyl)piperazine-1-carbonyl)-1H-pyrazole-3-carboxylic acid] | > 75% | > 75% | 0 to 25% | 50 to 75% | 100 to 1000 nM |  | 
6 | C[C@H]1CCCCN1c1cc(C(F)(F)F)ccc1CN1CCN(C(=O)n2ccc(C(=O)O)n2)CC1 [Example 110, (S)-1-(4-(2-(2-methylpiperidin-1-yl)-4-(trifluoromethyl)benzyl)piperazine-1-carbonyl)-1H-pyrazole-3-carboxylic acid] | > 75% | > 75% | 0 to 25% | 0 to 25% |  |  | 
7 | O=C(O)c1ccn(C(=O)N2CCN(Cc3ccc(C(F)(F)F)cc3N3CCC(F)(F)CC3)CC2)n1 [Example 108, 1-(4-(2-(4,4-difluoropiperidin-1-yl)-4-(trifluoromethyl)benzyl)piperazine-1-carbonyl)-1H-pyrazole-3-carboxylic acid] | > 75% | > 75% | 0 to 25% | 0 to 25% |  |  | 
8 | NC(=O)c1ccn(C(=O)N2CC3CN(Cc4ccc(C(F)(F)F)cc4)CC3C2)n1 (stereo not drawn) [Example 182, 1-(5-(4-(trifluoromethyl)benzyl)octahydro-pyrrolo[3,4-c]pyrrole-2-carbonyl)-1H-pyrazole-3-carboxamide] | > 75% | > 75% | > 75% | > 75% |  |  | 
9 | CN(Cc1ccccc1Cl)[C@H]1C[C@@H]2CN(C(=O)n3cc(Cl)c(C(N)=O)n3)C[C@@H]2C1 [Example 128] | > 75% | > 75% | > 75% | > 75% |  |  | 
10 | O=C(O)c1ccn(C(=O)N2CCN(Cc3cccc(Oc4cncnc4)c3)CC2)n1 [Example 65, 1-(4-(3-(pyrimidin-5-yloxy)benzyl)piper-azine-1-carbonyl)-1H-pyrazole-3-carboxylic acid] | 50 to 75% | 25 to 50% | 0 to 25% | 0 to 25% |  |  | 
11 | O=C(O)c1ccn(C(=O)N2CCC3(CCCN3C(=O)c3cc4ccc(C(F)(F)F)cc4s3)CC2)n1 [Example 56, 1-(1-(6-(trifluoromethyl)benzo[b]thiophene-2-carbonyl)-1,8-diazaspiro[4.5]decane-8-carbonyl)-1H-pyrazole-3-carboxylic acid] | > 75% | > 75% | 0 to 25% | 50 to 75% |  |  | 
12 | O=C(O)c1nn(C(=O)N2CC3CN(Cc4ccc(-c5nnn[nH]5)cc4C(F)(F)F)CC3C2)cc1Cl (stereo not drawn) [Example 141, 1-(5-(4-(1H-tetrazol-5-yl)-2-(trifluoromethyl)benzyl)octahydro-pyrrolo[3,4-c]pyrrole-2-carbonyl)-4-chloro-1H-pyrazole-3-carboxylic acid] |  | 0 to 25% |  | 0 to 25% |  | > 75% | > 75%
13 | O=C(O)c1ccn(C(=O)N2CCC3(CCN(Cc4cccc(C(F)(F)F)c4)C3)CC2)n1 [Example 192, 1-(2-(3-(trifluoromethyl)benzyl)-2,8-diazaspiro[4.5]decane-8-carbonyl)-1H-pyrazole-3-carboxylic acid] | > 75% | 25 to 50% | 0 to 25% | 0 to 25% |  |  | 
14 | O=C(O)c1ccn(C(=O)N2C[C@H]3C[C@@H](Oc4cccc(-c5ccccc5)c4)C[C@H]3C2)n1 [Example 164, 1-(cis-5-([1,1′-biphenyl]-3-yloxy)octahydro-cyclopenta[c]pyrrole-2-carbonyl)-1H-pyrazole-3-carboxylic acid] | > 75% | > 75% | > 75% | 25 to 50% | 100 to 1000 nM |  | 
15 | NC(=O)c1ccn(C(=O)N2CCN(Cc3ccc(N4CCOCC4)cc3Cl)CC2)n1 [Example 165, 1-(4-(2-chloro-4-morpholinobenzyl)piperazine-1-carbonyl)-1H-pyrazole-3-carboxamide] | > 75% | > 75% | > 75% | 50 to 75% |  |  | 
16 | O=C(O)c1nn(C(=O)N2CC3CN(Cc4cc(Cl)ccc4Cl)CC3C2)cc1Cl (stereo not drawn) [Example 136, 4-chloro-1-(5-(2,5-dichlorobenzyl)octa-hydropyrrolo[3,4-c]pyrrole-2-carbonyl)-1H-pyrazole-3-carboxylic acid] | > 75% | > 75% | > 75% | > 75% | 100 to 1000 nM |  | 
17 | O=C(O)c1ccn(C(=O)N2CCC3(CCN(Cc4cc(F)cc(Cl)c4)C3)CC2)n1 [Example 70, 1-(2-(3-chloro-5-fluorobenzyl)-2,8-diazaspiro[4.5]decane-8-carbonyl)-1H-pyrazole-3-carboxylic acid] | 25 to 50% | 0 to 25% | 50 to 75% | 0 to 25% |  |  | 
